According to patent publication US7579432B2, “Cyclic peptides as G-protein-coupled receptor antagonists” (Promics Pty Limited, priority 2001, dated 2009):

How the values were obtained:
[1] = tested on: neutropenia caused by i.v. LPS; test: LPS-induced neutropenia (endotoxaemia model); format: in vivo, rat; settings: topical in 50% DMSO/50% H2O, 60 min before LPS 1 mg/kg i.v.
Method: The in vivo pharmacological properties of cyclic antagonists were examined following topical dermal administration. A model of endotoxaemia was used, in which 1 mg/kg Escherichia coli […] (LPS; serotype 55:B5, Sigma, USA, stored at 100 mg ml^−1 in dH2O, 4° C.), was injected i.v into a rat, resulting in acute changes in circulating PMN levels and blood pressure. These parameters were measured in the presence and absence of C5aR antagonists (1 mg/kg i.v or 50 mg/kg/rat topically). […] Female Wistar rats weighing between 200-250 g were used for in vivo testing of all C5a receptor antagonists. Rats were anaesthetized using the procedure described above, and transferred on to a heating pad to ensure that body temperature was maintained throughout the experiment. A catheter was inserted in the femoral vein, secured with a suture and flushed with 100 μL of heparinised saline. […] All agents infused i.v were injected over a 2 min period, and were followed with a subsequent injection of 100 μL of saline to ensure complete delivery of the drug. Whole blood samples (0.1 mL) were collected from the tail vein at the time of drug and LPS or C5a administration. Samples were collected at −15, 0, 5, 10, 15, 30, 60, 90, 120 and 150 min relative to the injection of LPS (zero time), and placed in tubes containing heparin (500 Units/mL). To isolate PMNs, 100 μL of blood was layered on to 200 μL of Histopaque 1077 (Sigma U.S.A.) solution and centrifuged at 400×g for 30 min min at room temperature (25° C.). The supernatant layer of platelet-rich plasma, the monocyte and lymphocyte interface and the separation layer of Histopaque were removed and discarded, leaving the PMN and red blood-cell rich layer. […] The number of PMNs was counted on a haemocytometer. The number of cells at each time point was calculated as a percentage of the total number of cells at time zero, prior to complement challenge or LPS. […] Circulating PMN levels were monitored for 150 min following LPS injection, and the percentage change in PMN levels from zero time, when LPS was injected, was calculated.

[2] = Plasma levels after topical dermal administration; format: in vivo, rat; settings: dermal application, 50 mg/kg, DMSO/distilled H2O or PG/H2O
Method: Female and male Wistar rats (200-250 g) were anaesthetized with 1 mL of zoletil (50 mg/kg) and xylazine (10 mg/kg; Lyppard, Australia), which was injected intraperitoneally. An area of 5×10 cm was shaved and marked on the lower abdominal area of the rat, on to which the dose of drug was applied. A stock solution containing 10 mg/ml of C5a antagonist was dissolved in solvents propylene glycol or dimethylsulfoxide at varying concentrations with water and smeared evenly on the shaved abdominal area of the rat with a spatula. A heating pad was used to maintain the body temperature of the rats and blood samoles were taken at 15 min intervals for the first hour, and after that at 1 hr intervals for a total period or 3 hours.
Blood samples were immediately added to tubes containing heparin (500 Units/μL) and centrifuged (11000×g). […] The fluid portions of the samples were placed in 1 mL Eppendorf tubes and stored until analysed.
These samples were transferred to 96 well plates and evaporated to dryness using a GeneVac centrifugal evaporator, then reconstituted in the wells with mobile phase (20 μL) Analysis of samples was performed by liquid chromatography (LCMS) using an Agilent 1100 series HPLC equipped with a well plate autosampler coupled with a PE Sciex Qstar Pulsar ESI-TOF mass spectrometer. Concentrations were determined from a standard curve of drug:internal standard peak area ratios. […]

dermal Arthus reaction = test: Reverse passive dermal Arthus reaction in the rat; format: in vivo; settings: intravenous, oral and topical
[3] = tested on: antigen-induced arthritis; test: Rat monoarticular antigen-induced arthritis; format: in vivo
Method: Female Wistar rats (150-250 g) were obtained from the Central Animal Breeding House, University of Queensland. […] Each rat received a subcutaneous injection of this suspension (0.5 mL) on days 1 and 7. On day 12-28, rats were separated into separate cages, and body weight and food and water intake monitored daily. Rats received either ordinary tap water or drinking water containing AcF-[OPdChaWR] (1). […] Rats were euthanased on day 28, and whole blood collected into an Eppendorf tube and allowed to clot on ice. Blood samples were centrifuges (11,000 rpm×3 min) and serum collected and stored at −20° C. until analysis of serum cytokines using an ELISA. Each knee capsule was lavaged with 100 μL saline, and the total cell count determined using a haemocytometer. In addition, an aliquot of the knee joint lavage fluid was dropped onto a glass slide, and allowed to air dry. Once dry, cells were stained with a differential stain (Diff Quick) and a differential cell count was performed using a 40× dry lens microscope. The remaining lavage fluids from each joint were stored at −20° C. until later analysis of intra-articular cytokine levels using an ELISA. Each knee joint was removed and the skin was split with a scalpel blade to allow fixation. Knee samples were stored in 10% buffered formalin for≧10 d. Knees were then rinsed with distilled water and placed in a saturated solution of EDTA solution for 21 d for decalcification before being embedded in paraffin wax. Knee tissue samples were prepared using standard histological techniques as described above in Example 6 and stained using an heamotoxylin and eosin stain. Histological slides were analysed in a blinded fashion. […] In no samples was there evidence of significant bone erosion. Samples of serum and synovial fluid were thawed on the day of ELISA analysis for TNFα and IL-6 levels. Concentrations were determined from a standard curve, using an ELISA as described previously in Example 6.

In the case of `CC(=O)N[C@@H](Cc1ccccc1)C(=O)N[C@H]1CCCNC(=O)[C@H](CCCNC(=N)N)NC(=O)[C@H](Cc2c[nH]c3ccccc23)NC(=O)[C@@H](CC2CCCCC2)NC(=O)[C@@H]2CCCN2C1=O` [Compound 1, Ac-Phe-[Orn-Pro-dCha-Trp-Arg]], the “neutropenia response to i.v. LPS” value [1] is reported as “inhibited the neutropenia response”, the “appearance of the C5a antagonist in the circulating plasma” value [2] is reported as ≤ 15 min and the “persistence of significant plasma levels” value [2] is reported as “at least 4 hr”. The “vascular leakage associated with a dermal Arthus reaction” value (dermal Arthus reaction; FIG. 1) was “inhibition”, the “rise in circulating TNFα associated with a dermal Arthus reaction” value (dermal Arthus reaction; FIG. 2) was “inhibition” and the “arthritic right knee joint swelling” value ([3]; given orally on Days −2 to +14) was “inhibition”. The “right knee joint IL-6 levels in joint lavage” value ([3]; oral) was “inhibition” and the “right knee joint TNF-α levels in joint lavage” value ([3]; oral) was “inhibition”.
